Experimental data from patent US20150306056A1, “USE OF A DHA ESTER FOR PROPHYLACTIC AND/OR CURATIVE TREATMENT OF DREPANOCYTOSIS” (PIERRE FABRE MEDICAMENT, priority 2012, published 2015).

How the values were obtained:
Type in all cases: in vivo
[1] = DHA level of red blood cells in dogs given nicotinol DHA via oral route
Description: (§1) Effect of nicotinol DHA on the fatty acid composition of plasma and red blood cells in dogs treated via oral route. The objective of this first study was to assay total DHA in the blood (plasma and red blood cells) of dogs given nicotinol DHA via oral route.
(§2) Two groups of 10 dogs were used:
(§3) Group 2: nicotinol DHA at 2 g per day.
(§4) All the animals were given either a placebo or nicotinol DHA at 2 g per day via oral route for 28 days. Blood samples were taken at D1 (control), D7, D14, D21 and D28.
(§5) The total lipids of the plasma (500 μL) and of the red blood cells (≈500 mg, the weighing of red blood cells is more accurate than measuring volume) were extracted with 4 mL of hexane/isopropanol mixture ([…]) in an acid medium (3M HCl, 500 μL) in the presence of margaric acid as internal standard (100 μg). After agitation and centrifugation (2000 g, 15 minutes, 10° C.) the organic phase was separated. A second extraction with 2 mL of the same solvent was performed under the same conditions. The organic phases were washed with 2 mL of saline water ([…]). The solvents were evaporated under a stream of nitrogen at 40° C.
(§6) The total lipids derived from the plasma and red blood cells were then saponified (1 mL of 0.5M NaOH in methanol, 70° C., 30 minutes) then converted to methyl eaters (1 mL, 14% BF3 in methanol, 70° C., 15 minutes). After hydrolysio (4 mL […]) they were extracted with 4 then 2 mL of pentane. The organic phases were washed with 2 mL of saline water (9% NaCl). The solvents were evaporated under a stream of nitrogen at 40° C. The methyl esters were re-dissolved in 200 μL hexane for the plasma and red blood cells. The extracted fatty acid methyl esters were analysed by gas phase chromatography. The chromatograph (Agilent Technologies 6890N) was equipped with a split injector heated to 260° C. (1:10 division ratio), capillary column (length 60 m, diameter 0.25 mm) with BPX70 stationary phase (70% cyanopropylpolyphenylene-siloxane; thickness 0.25 μm) and flame ionization detector heated to 260° C. (hydrogen: 40 mL/min, air: 450 mL/min). The vector gas was helium (constant flow rate 1.5 mL/min). The temperature of the column was initially 150° C. and brought at a temperature gradient of 1.3° C./min up to 220° C. then 40° C./min to reach 260° C. for 5 minutes. The retention times of standard methyl esters allowed identification of the extracted fatty acid methyl esters.
(§7) The DHA was quantitated relative to the internal standard (C17:0) added in known quantity to the sample before extraction of the total lipids. It is expressed in μg/mL for the plasma, in μg/g for the red blood cells. The values are given as a mean f standard deviation (in general n=10). The significant differences are shown by a Student's test with 5% threshold.

[2] = DHA plasma level in dogs given nicotinol DHA via oral route
Description: as §1, §2, §3, §4, §5, §6, §7

[3] = DHA plasma level in rats given panthenol DHA via oral force-feeding; settings: 300 and 1000 mg/kg per day oral, 7 days (FIG. 1)
Procedure: (§8) Incorporation of DHA in the plasma and red blood cells of rats receiving panthenol […] via oral route. The objective of this study was to assay total DHA in the blood (plasma and red blood cells) of rats given panthenol DHA via oral force-feeding for 7 days.
(§9) Three groups of 4 rats (2 male and 2 female) were used:
(§10) Group 1: control group (olive oil)
(§11) Group 2: panthenol DHA at 300 mg/kg per day.
(§12) Group 3: panthenol DHA at 1000 mg/kg per day.
(§13) The total lipids of the plasma (500 μL) and red blood cells were extracted with a hexane/isopropanol mixture (3:2, v/v) in an acid medium (3M HCl, 1 mL) in the presence of margaric acid as internal standard. The total lipids from the plasma and red blood cell were saponified (i mL 0.5M NaOH in methanol, 70° C., 30 minutes) then converted to methyl esters (1 mL, 14% BF) in methanol, 70° C., 15 minutes). The fatty acid methyl esters were extracted with pentane then analysed by gas phase chromatography. The chromatograph (Agilent Technologies 6890N) was equipped with a split injector heated to 250° C. (division ratio 1:10) and a capillary column (length 60 m, diameter 0.25 mm) with BPX70 stationary phase (70% cyanopropylpolyphenylene-siloxane; thickness 0.25 μm). The vector gas was helium. […]
(§14) The DHA was quantitated in relation to the internal standard (C17:0) added in known quantity to the sample before extraction of the total lipids. […]

[4] = DHA level of red blood cells in rats given panthenol DHA via oral force-feeding; settings: 300 and 1000 mg/kg per day oral, 7 days (FIG. 1)
Procedure: as §8, §9, §10, §11, §12, §13, §14

[5] = DHA concentration in human red blood cells after oral panthenol DHA (clinical trial); settings: irrespective of the dose (1, 2, 4 g/day), 28 days
Procedure: Concentration of DHA in human red blood cells after absorption of panthenol DHA.
The objective of this clinical trial was to determine total DHA concentrations in the red blood cells of volunteers given a once daily oral dose of panthenol DHA for 28 days. Three doses of panthenol […] were tested in this trial: 1, 2 and 4 g/day. Twelve persons were included in this trial, 3 were given a placebo (without panthenol DHA) and 9 were given panthenol DHA.
Blood samples were taken before administering panthenol DHA (corresponding to the baseline) and thereafter at days 4, 7, 10 14, 15, 19, 22, 25 and 29 to determine the DHA concentrations in the red blood cells. Two blood samples of 4 mL each were taken in tubes containing EDTA. The tubes were centrifuged at 3000 g for 15 minutes at ambient temperature within 30 minutes after the taking of the sample. […]
The lipids were extracted from the red blood cell samples (≈500 mg) using a hexane/isopropanol mixture (3:2 v/v) in an acid medium in the presence of margaric acid as internal standard (100 μg). […] After extraction with pentane, the extracted fatty acid methyl esters were analysed by gas phase chromatography. […]
The DHA was quantitated relative to the internal standard (C17:0) added in known quantity to the sample before extraction of the total lipids. […]

[6] = 2 g/D oral, significant at every treatment time vs control group
[7] = group 2, D −1 (start of the experiment, before treatment with 2 g/D oral)

| DHA level of red blood cells, mean ([1]; 2 g/D oral, D 7) | DHA level of red blood cells, mean ([1]; 2 g/D oral, D 14) | DHA level of red blood cells, mean ([1]; 2 g/D oral, D 21) | DHA level of red blood cells, mean ([1]; 2 g/D oral, D 28) | effect of treatment on DHA level of red blood cells [1, 6] | DHA level of red blood cells, mean [1, 7] | DHA plasma level, mean ([2]; 2 g/D oral, D 7) | DHA plasma level, mean ([2]; 2 g/D oral, D 14) | DHA plasma level, mean ([2]; 2 g/D oral, D 21) | DHA plasma level, mean ([2]; 2 g/D oral, D 28) | effect of treatment on plasma DHA [2, 6] | DHA plasma level, mean [2, 7] | amount of DHA found in the plasma ([3]; female rats) | amount of DHA found in the plasma ([3]; male rats) | amount of DHA found in the red blood cells ([4]; female rats) | amount of DHA found in the red blood cells ([4]; male rats) | Structure (SMILES) | DHA level in human red blood cells versus placebo [5] |
| --- | --- | --- | --- | --- | --- | --- | --- | --- | --- | --- | --- | --- | --- | --- | --- | --- | --- |
| 4.7 µg/mL | 7.1 µg/mL | 8.3 µg/mL | 8.7 µg/mL | rise in the DHA level of red blood cells | 1.7 µg/mL | 22.1 µg/mL | 23.7 µg/mL | 27.9 µg/mL | 32.6 µg/mL | increase in plasma DHA | 3.8 µg/mL |  |  |  |  | CC/C=C\C/C=C\C/C=C\C/C=C\C/C=C\C/C=C\CCC(=O)OCc1cccnc1 [nicotinol DHA] |  |
|  |  |  |  |  |  |  |  |  |  |  |  | only increased with the higher dose | dependent on the dose | only increased with the higher dose | dependent on the dose | CC/C=C\C/C=C\C/C=C\C/C=C\C/C=C\C/C=C\CCC(=O)OCCCNC(=O)[C@@H](O)C(C)(C)CO [panthenol DHA, panthenyl docosahexaenoate] | increased compared with the placebo group |
